The values that follow come from PMC6273353, “Design, Synthesis and Evaluation of Novel Tacrine-Ferulic Acid Hybrids as Multifunctional Drug Candidates against Alzheimer’s Disease” (Molecules, 2016).

For data set [1], the target named is T1, AChE (Homo sapiens, UniProt P22303).
T1 construct: purchased Sigma-Aldrich
In words: biochemical. To be noted: for Selectivity Index: Selectivity index = IC50 (BuChE)/IC50 (AChE); for IC50: mean ± SD of three independent experiments. The procedure:
(§1) Five different concentrations (10^−4–10^−9 M) of each compound were tested for the inhibitory activity for AChE and BuChE. 10 μL 0.86 U/mL AChE or BuChE, 60 μL 0.1 M phosphate buffer (pH 8.0), and 10 μL test compounds were incubated together at 37 °C for 10 min. An amount of 20 μL 10 mmol/L […] or butylthicoline iodide was added and the solution was incubated at 37 °C for 10 min again. Then 20 μL 5 mmol/L 5,5′-dithiobis-(2-nitrobenzoic acid) (DTNB) and 30 μL 1% sodium dodecyl sulfatesodium salt (SDS) were added. […] Each concentration was analyzed three times, and the IC50 value was calculated from the concentration-inhibition response curve on logarithmic scale.

The target of the next data set is T2, BuChE (Homo sapiens, UniProt P06276).
T2 construct: purchased Sigma-Aldrich
Put plainly: biochemical. The following applies: mean ± SD of three independent experiments. The procedure: as §1

For a further data set, the system named is Neuro-2A cells. In words: Protective effect against Aβ-induced neurotoxicity, MTT viability assay. To be noted: 8d 5 or 10 μM with 10 μM Aβ (1–42), 48 h, p < 0.05. It counts as cell-based. The procedure: To investigate the protective effect of 8d against Aβ-induced cytotoxicity, 8d (0, 5 or 10 μM) and 10 μM Aβ (1–42) was directly added into the medium of the Neuro-2A cells. The cells were incubated for 48 h.
Neuro-2A cell were grown in dulbecco’s modified eagle medium (DMEM) plus 1% glutamine and 10% heat-inactivated fetal bovine serum. The assays were performed in 96-well microtiter plates. Cells were treated with or without lyophilizated Aβ (1–42) (10 μM), or different concentrations of 8d (5, 10 μM) combination and incubated for 48 h. Then, 10 µL of MTT (5 mg/mL) was added to each well and incubated for four hours, and then the liquid in the wells was removed. DMSO (150 µL) was added to each well. The absorbance was recorded using a microplate reader at a wavelength of 570 nm.
Neuroprotective effect of 8d were evaluated by cells treated with 8d at the concentration of 0, 5 or 10 μM in the presence of 10 μM Aβ for 48 h; Vehicle group was treated with solvent. The cell viability was assessed using the 3-[4,5-dimethylthylthiazol-2-yl]-2,5 diphenyltetrazoliumbromide (MTT) assay. Data are from three independent experiments and are expressed as the mean ± SD values. ** p < 0.01 compared to vehicle. * p < 0.05, represents significant differences from the control group.
On the technique in general: Formazan colour is commonly taken as a measure of viable cells.

For another data set, the target named is T3, Aβ (1–42) (Homo sapiens, UniProt P05067).
T3 construct: An amount of 250 μg Aβ (1–42) was dissolved; purchased Sigma-Aldrich
In words: Inhibition of self-induced Aβ (1–42) aggregation, thioflavin T-based fluorometric assay. The following applies: 20 μM compounds, 20 μM Aβ (1–42), 37 °C, 48 h; mean ± SD. It counts as biochemical. The procedure:
TFAs 8a–e were tested for their ability to inhibit self-induced Aβ (1–42) aggregation by a thioflavin T-based fluorometric assay, and curcumin and ferulic acid were used as reference compounds.
An amount of 250 μg Aβ (1–42) was dissolved in 1 mL hexafluoroisopropanol (HFIP) and lyophilizated, then dissolved in 25 μL DMSO and 150 μL 50 mM phosphate buffer saline (PBS). For the self-induced assay, 10 μL of Aβ (1–42) was incubated with 10 μL test compounds, both at a final concentration of 20 μM, at 37 °C for 48 h. Then, 40 μL PBS and 100 μL 5 μM thioflavin T (ThT) in 50 mM glycine-NaOH buffer (pH 8.5) was added. […] The percent inhibition of the self-induced aggregation due to the presence of the test compound was calculated by the following expression: 100 − (IFi/IF0 × 100) where IFi and IF0 are the fluorescence intensities with and without test compound, respectively, minus the fluorescence intensities due to the respective blanks.

A short description of data set [2]: Cu2+-chelating properties assay by UV spectrometry. It counts as physicochemical. To be noted: 8d 40 μM with 10, 20, 40 μM CuCl2 in MeOH, UV 220–400 nm. Here is the method: In recent years, there is mounting evidence to support the theory that endogenous copper can be involved as factors or cofactors in the etiopathogenesis of AD, and modulating Cu^2+ in the brain should be to the benefit of AD treatment. The chelating effect of 8d for Cu^2+ was studied by ultra violet (UV) spectrometry with wavelength ranging from 220 to 400 nm.
The complexing studies were determined using a UV spectrophotometer (Beckman Coulter Inc., Brea, CA, USA). Compound 8d (40 µM) in methanol was mixed with 10, 20, 40 µM CuCl2, and then incubated at room temperature for 5 min. The absorption spectra were recorded from 220 nm to 400 nm after incubation.

Data set [3] deals with T1, AChE. In words: Kinetic analysis of AChE inhibition (Lineweaver-Burk). To be noted: Lineweaver-Burk reciprocal plots, six substrate concentrations. In kind it is biochemical. The procedure: Kinetic characterization of AChE was performed as the reported method using six different substrate concentrations (50, 90, 150, 266, 452, and 904 μM). An amount of 60 µL PBS, 20 µL DTNB, 10 µL AChE, and 10 µL inhibitor were mixed together and pre-incubated for 10 min, followed by the addition of 20 μL different substrate and then incubated for 15 min. After that, 30 μL 1% SDS was added. Kinetic characterization of the hydrolysis of acetylthiocholine chloride catalyzed by AChE was done spectrometrically at 415 nm. A parallel control with no inhibitor in the mixture, allowed adjusting activities to be measured.

T1 sequence (P22303 32-614): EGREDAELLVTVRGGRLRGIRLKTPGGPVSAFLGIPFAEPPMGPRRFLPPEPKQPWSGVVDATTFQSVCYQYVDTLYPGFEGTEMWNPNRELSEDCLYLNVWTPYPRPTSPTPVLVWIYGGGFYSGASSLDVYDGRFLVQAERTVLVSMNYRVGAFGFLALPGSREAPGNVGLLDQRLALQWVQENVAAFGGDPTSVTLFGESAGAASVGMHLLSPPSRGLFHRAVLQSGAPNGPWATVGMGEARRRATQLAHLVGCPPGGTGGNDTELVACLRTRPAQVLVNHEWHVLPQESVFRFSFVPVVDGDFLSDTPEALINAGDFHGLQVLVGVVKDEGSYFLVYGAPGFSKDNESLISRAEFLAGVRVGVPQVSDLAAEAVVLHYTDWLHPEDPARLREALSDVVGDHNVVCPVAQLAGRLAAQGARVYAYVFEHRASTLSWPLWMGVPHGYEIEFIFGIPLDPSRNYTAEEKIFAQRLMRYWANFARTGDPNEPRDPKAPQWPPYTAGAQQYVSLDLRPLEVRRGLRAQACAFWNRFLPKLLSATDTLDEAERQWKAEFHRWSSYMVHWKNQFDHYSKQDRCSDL
T2 sequence (P06276 29-602): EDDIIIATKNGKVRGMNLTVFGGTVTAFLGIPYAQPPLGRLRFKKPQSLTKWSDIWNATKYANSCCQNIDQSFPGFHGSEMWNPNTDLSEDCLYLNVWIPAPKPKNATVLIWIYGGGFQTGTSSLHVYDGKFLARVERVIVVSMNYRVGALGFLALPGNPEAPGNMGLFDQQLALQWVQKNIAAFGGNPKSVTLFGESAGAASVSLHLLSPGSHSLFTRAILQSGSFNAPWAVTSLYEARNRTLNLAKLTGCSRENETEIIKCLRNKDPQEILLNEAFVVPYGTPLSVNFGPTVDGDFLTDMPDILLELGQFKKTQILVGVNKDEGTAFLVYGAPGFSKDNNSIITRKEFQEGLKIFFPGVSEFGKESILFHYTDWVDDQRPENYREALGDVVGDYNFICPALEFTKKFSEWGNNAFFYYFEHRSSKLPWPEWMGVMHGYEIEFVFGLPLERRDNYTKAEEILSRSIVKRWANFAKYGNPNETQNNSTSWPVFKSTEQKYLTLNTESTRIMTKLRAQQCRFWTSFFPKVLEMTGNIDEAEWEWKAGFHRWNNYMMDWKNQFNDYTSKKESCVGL
T3 sequence (P05067 672-713): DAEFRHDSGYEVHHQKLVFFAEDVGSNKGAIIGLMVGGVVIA

As for `COC(=O)/C=C/c1ccc(OCCCCCN2CCN(CC(=O)Nc3c4c(nc5ccccc35)CCCC4)CC2)c(OC)c1` [Compound 8d, Methyl (E)-3-(3-methoxy-4-((5-(4-(2-oxo-2-((1,2,3,4-tetrahydroacridin-9-yl)amino)ethyl)piperazin-1-yl)pentyl)oxy)phenyl)acrylate], at AChE [1], the “Selectivity Index” value was determined as 1.733 and the IC50 is 61.7 ± 5.2 nM. The compound also yielded a 50% inhibitory concentration (IC50) on BuChE of 107 ± 13.1 nM. In addition, the “cell viability compared with Aβ-treated alone group (in words)” value with Neuro-2A cells is “significant dose-dependent increase in cell viability”. On Aβ (1–42), the inhibition at 20 µM came out at 37.2 ± 0.9%. Also, in data set [2], the “chelating effect for Cu^2+ (in words)” value is “complex 8d-Cu^2+ had been produced”. The “mechanism of AChE inhibition” value on AChE [3] is on record as “mixed-type inhibitors”.
`COc1cc(/C=C/C(=O)O)ccc1O` [ferulic acid]: the inhibition at 20 µM on Aβ (1–42) came to 36.5 ± 3.6%.
As to `COC(=O)/C=C/c1ccc(OCCCCCCN2CCN(CC(=O)Nc3c4c(nc5ccccc35)CCCC4)CC2)c(OC)c1` [Compound 8e, Methyl (E)-3-(3-methoxy-4-((6-(4-(2-oxo-2-((1,2,3,4-tetrahydroacridin-9-yl)amino)ethyl)piperazin-1-yl)hexyl)oxy)phenyl)acrylate], on AChE [1], the “Selectivity Index” value is 1.059 and the IC50 was found to be 184 ± 15.2 nM. The compound also returned a half-inhibitory concentration (IC50) on BuChE of 196 ± 3.5 nM. The inhibition at 20 µM against Aβ (1–42) amounted to 35.1 ± 3.2%.
Regarding `COC(=O)/C=C/c1ccc(OCCCCN2CCN(CC(=O)Nc3c4c(nc5ccccc35)CCCC4)CC2)c(OC)c1` [Compound 8c, Methyl (E)-3-(3-methoxy-4-(4-(4-(2-oxo-2-((1,2,3,4-tetrahydroacridin-9-yl)amino)ethyl)piperazin-1-yl)butoxy)phenyl)acrylate], on AChE [1], the “Selectivity Index” value turned out to be 4.087 and the IC50 came to 52.7 ± 8.2 nM. Further, the IC50 against BuChE is 215 ± 33.7 nM. The same compound displayed an inhibition at 20 µM against Aβ (1–42) of 18.5 ± 4%.
As for `COC(=O)/C=C/c1ccc(OCCCN2CCN(CC(=O)Nc3c4c(nc5ccccc35)CCCC4)CC2)c(OC)c1` [Compound 8b, Methyl (E)-3-(3-methoxy-4-(3-(4-(2-oxo-2-((1,2,3,4-tetrahydroacridin-9-yl)amino)ethyl)piperazin-1-yl)propoxy)phenyl)acrylate], at AChE [1], the “Selectivity Index” value was determined as 1.326 and the IC50 was 90.3 ± 7.3 nM. This compound also yielded an IC50 on BuChE of 120 ± 12.5 nM. The compound also returned an inhibition at 20 µM against Aβ (1–42) of 19.5 ± 2.7%.
`COc1cc(/C=C/C(=O)CC(=O)/C=C/c2ccc(O)c(OC)c2)ccc1O` [curcumin, reference compound] had an inhibition at 20 µM against Aβ (1–42) of 37.3 ± 1.2%.
With `COC(=O)/C=C/c1ccc(OCCN2CCN(CC(=O)Nc3c4c(nc5ccccc35)CCCC4)CC2)c(OC)c1` [Compound 8a, Methyl (E)-3-(3-methoxy-4-(2-(4-(2-oxo-2-((1,2,3,4-tetrahydroacridin-9-yl)amino)ethyl)piperazin-1-yl)ethoxy)phenyl)acrylate], the “Selectivity Index” value on AChE [1] was 0.660. The IC50 was 306 ± 12.4 nM at AChE [1] and 203 ± 35.7 nM against BuChE. This compound also yielded an inhibition at 20 µM against Aβ (1–42) of 26.1 ± 4.5%.

As a reminder, the IC50 is the concentration at which inhibition is half-maximal. Read a low IC50 as greater potency. By inhibition is commonly meant the change of the read-out against control, counted positive when it falls. A higher inhibition goes with a response far below the control.
